Patent publication US20080311601A1, “Methods for Prediction and Prognosis of Cancer, and Monitoring Cancer Therapy” (priority 2005, published 2008)

Tested on: VEGF
Test: VEGF ELISA on plasma from renal cell carcinoma patients treated with Sorafenib
Type: in vivo, human
Protocol: Duplicate samples were used to measure the VEGF level using a VEGF ELISA (R&D Systems, Minneapolis, Minn.) per the manufacturers directions. The mean value of the duplicate measurements was determined for each patient.

CNC(=O)c1cc(Oc2ccc(NC(=O)Nc3ccc(Cl)c(C(F)(F)F)c3)cc2)ccn1 [Sorafenib]
Median VEGF (Baseline (pretreatment)): 237.4 pg/mL | Median VEGF (Cycle 1 Day 21): 301.6 pg/mL | Median VEGF (Cycle 3 Day 1): 309.0 pg/mL | change of VEGF levels from baseline (at both time points (Cycle 1 Day 21, Cycle 3 Day 1), p<<0.01, paired t-test): increase significantly from baseline
